Assay results published in ChEMBL document CHEMBL3045886, “Benzothiazole Schiff-bases as potential imaging agents for -amyloid plaques in Alzheimers disease” (Med Chem Res, 2013).
Active and inactive are the calls of the source. The rule behind the calls is not given here.

Each compound was assayed against T1, Amyloid-beta precursor protein (Homo sapiens, UniProt P05067) (assay: Binding affinity to beta amyloid (unknown origin) isolated from alzheimer's patient brain homogenates at 50 uM after 20 min by fluorescence microscopic analysis relative to thioflavin S-treated control).
T1 sequence (P05067 whole entry): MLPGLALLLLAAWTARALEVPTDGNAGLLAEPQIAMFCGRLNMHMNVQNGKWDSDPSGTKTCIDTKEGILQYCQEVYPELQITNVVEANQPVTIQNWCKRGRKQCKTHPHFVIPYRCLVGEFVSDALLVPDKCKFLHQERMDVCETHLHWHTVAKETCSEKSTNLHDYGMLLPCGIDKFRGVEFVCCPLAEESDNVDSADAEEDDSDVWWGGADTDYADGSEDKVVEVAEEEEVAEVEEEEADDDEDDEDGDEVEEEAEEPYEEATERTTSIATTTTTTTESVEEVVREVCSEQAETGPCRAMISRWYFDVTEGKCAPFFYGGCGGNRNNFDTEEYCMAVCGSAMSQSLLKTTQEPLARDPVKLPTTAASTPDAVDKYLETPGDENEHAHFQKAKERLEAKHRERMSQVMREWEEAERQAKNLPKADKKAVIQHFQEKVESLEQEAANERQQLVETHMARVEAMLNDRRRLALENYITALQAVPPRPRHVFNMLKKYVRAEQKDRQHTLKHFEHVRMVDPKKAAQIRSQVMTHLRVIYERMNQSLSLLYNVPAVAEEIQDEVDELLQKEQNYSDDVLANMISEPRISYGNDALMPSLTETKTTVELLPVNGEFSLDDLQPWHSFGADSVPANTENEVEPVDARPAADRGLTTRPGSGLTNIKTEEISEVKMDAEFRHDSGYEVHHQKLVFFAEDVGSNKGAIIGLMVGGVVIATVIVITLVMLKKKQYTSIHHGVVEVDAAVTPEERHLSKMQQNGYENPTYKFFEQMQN
Format: tissue-based

Activity | SMILES
Active | COc1ccc2nc(/N=C/c3ccc(N(C)C)cc3)sc2c1

The compounds below were run against T1, Amyloid-beta precursor protein (assay: Displacement of [125I]IMPY from beta amyloid (unknown origin) isolated from alzheimer's patient brain homogenates after 2 hr by gamma counting analysis).

SMILES | Ki [µM]
COc1ccc2nc(/N=C/c3ccc(I)cc3)sc2c1 | 0.103
COc1ccc2nc(/N=C/c3ccc([N+](=O)[O-])cc3)sc2c1 | 0.515
COc1ccc2nc(/N=C/c3ccc(Br)cc3)sc2c1 | 0.106
COc1ccc2nc(/N=C/c3ccc(O)cc3)sc2c1 | 0.0347

Stronger by Ki, values ahead:

Ki [µM] | SMILES
0.0108 | COc1ccc(/C=N/c2nc3ccc(OC)cc3s2)cc1
0.00438 | COc1ccc2nc(/N=C/c3ccc(N(C)C)cc3)sc2c1
